Assay [1] relates to cell surface receptor on hepatocytes. The conditions noted are these: Higuchi and Nakamura 1991; cited from earlier work.
The subject of assay [2] is rat hepatocytes in primary culture. Put plainly: Mitogenic assay: induction of DNA synthesis (3H-TdR incorporation) of rat hepatocytes in primary culture. The class given is cell-based. The conditions noted are these: * = did not reach the same absolute level as wild-type huHGF. As for the experimental part: The biological activity of WT huHGF and variants was measured by their abilities to induce DNA synthesis of rat hepatocytes in primary culture. […] Briefly, the livers of female Sprague Dawley rats (160-180 g) were perfused through the portal vein with 100 mL of Ca^++ free Hepes buffered saline containing 0.02% Collagenase type IV (Sigma). After 20 minutes the liver was removed, placed in buffer, gently stirred to separate hepatocytes from connective tissue and blood vessels, and filtered through nylon mesh. Cells were then washed by centrifugation, resuspended at 1×10^5 cells/mL in Williams Media E (Gibco) containing Penicillin (100 U/ml), Streptomycin ([…]), L-Glutamine (2 mM), trace elements (0.01%), transfertin ([…]) and Aprotinin ([…]). […] After 48 hours incubation at 37° C., 0.5 mCi 3H-TdR (15 Ci/mmole, Amersham) was added to each well and incubated for an additional 16 hours. Cells were harvested on filter papers, which were washed, dried and counted in a Beckman counter after addition of scintillation liquid. For each huHGF variant, the specific activity (SA) expressed in units/mg was calculated at half-maximal proliferation (defined as 1 unit/mL) using the HGF concentration obtained in ELISA.

Assay [3] concerns 145 kDa β-subunit of the HGF receptor in A549 cells. The assay can be described thus: Induction of tyrosine phosphorylation of the HGF receptor on A549 cells (Western blot). The class given is cell-based, human. The conditions noted are these: serum-starved A549 cells, 200 ng/mL purified protein, 5 minutes. As for the experimental part:
FIG. 4: Western blot of ligand-induced tyrosine-phosphorylation on the 145 kDa β-subunit of the HGF receptor by wild-type rhuHGF, single-chain or protease domain huHGF variants. […] Molecular masses (kilodaltons) are as indicated.
Serum-starved cells were incubated without or with 200 ng/mL rhuHGF for 5 minutes at 37° C. and extracted with lysis buffer containing 50 mM Hepes, 150 mM NaCl, 1.5 mM MgCl2, 1 mM EGTA, 10% Glycerol, 1% Triton X-100 and a cocktail of protease inhibitors. The lysates were immunoprecipitated with anti-Met COOH antibodies and blotted with anti-phosphotyrosine antibodies (see Western blotting above).
In general terms: A western blot detects proteins with antibodies after separation by electrophoresis.

For assay [4], the target named is extracellular domain of the human HGF receptor (huHGFr) fused to the Fc constant region of an human IgG. Put plainly: Soluble HGF receptor competitive binding assay (displacement of 125I-rhuHGF). Conditions: for Kd: binding to HGF receptor:IgG fusion protein, calculated at the IC50 from fitted inhibition curves. As for the experimental part: The coding sequence of the extracellular domain of the huHGFr was fused to those of the human IgGl heavy chain in a two-step process. […] The 5' primer (located in the vector upstream of the HeFr coding sequences) and the 3' primer (5'-[…]-3') (SEQ. ID. NO: 21) were used in a 100 μl reaction as described above except that the extension time at 72° C. was 3 minutes, and 40 ng of the full length HGFr expression vector was used as template. […] Sequencing of the construct was carried out as described above.
The binding assay was performed in breakable microtiter plates (Nunc) coated o/n at 4° C. with […] of rabbit-anti-human IgG Fc specific antibody (Jackson Immunoresearch) and plates were carefully washed with PBS containing 0.05% Tween 20 (Biorad). […] To each well […] of serial dilutions (1:25-1:6000) of cell supernatants, purified CHO-expressed rhuHGF ([…]) or medium were added in duplicates. Subsequently, […] of 50 pM of HGF receptor:IgG fusion protein were added and the plates were incubated with gentle shaking. After 4 hours, when equilibrium was reached, plates were washed and wells were individually counted in a gamma-counter. The amount of nonspecifically bound radioactivity was estimated by incubating HGF receptor:IgG with a 500-fold excess of unlabelled rhuHGF.

Broadly, the Kd is the free concentration of one partner at which half of the binding sites on the other are occupied at equilibrium, for simple one-to-one binding. As for “huHGF: human hepatocyte growth factor as studied in the literature for binding to hepatocytes”, the Kd in assay [1] was 24 to 32 pM.

Take “wt rhuHGF: wild-type recombinant human hepatocyte growth factor, 728 amino acid form (Miyazawa et al. 1989) [reference compound]”: the “SA mut/wt +/- SD” value in assay [2] (Table 2, specific mitogenic activity relative to wt rhuHGF) was determined as 1. Further, the “SA +/- mut/wt” value in assay [2] (Table 3, alterations near or within the hairpin domain) came to 1. Also, in assay [3], the “tyrosine phosphorylation of the HGF receptor (in words)” value is given as “led to the phosphorylation on tyrosine of the 145 kDa β-subunit of the HGF receptor”. Also, the Kdwt/mut in assay [4] (Table 2, Kd ratio wild type/mutant) is 1. Also, the figures for the Kd in assay [4] and in assay [4] (listed as WT rhuHGF) were 70 pM and 50 to 70 pM, respectively.

Values taken from patent US5547856A, “Hepatocyte growth factor variants” (Genentech, Inc., priority 1993, dated 1996).
